These results are taken from ChEMBL document CHEMBL1137000, “Synthesis and antibacterial activity of some novel imidazole-based dicationic quinolinophanes” (2009).

What all share (type): functional
The subject of one experiment is Staphylococcus aureus. Put plainly: Antibacterial activity against Staphylococcus aureus after 48 hrs by agar well diffusion method.
A further experiment deals with Klebsiella pneumoniae. Description: Antibacterial activity against Klebsiella pneumoniae after 48 hrs by agar well diffusion method.
Another experiment has as its system Shigella sp. Description: Antibacterial activity against Shigella sp. after 48 hrs by agar well diffusion method. Background: A growth-free zone around the sample is the usual read-out of agar diffusion tests.
Another experiment concerns Pseudomonas aeruginosa. Description: Antibacterial activity against Pseudomonas aeruginosa after 48 hrs by agar well diffusion method.
In a further experiment the test system is Vibrio cholerae. Description: Antibacterial activity against Vibrio cholerae after 48 hrs by agar well diffusion method.
For the next experiment, the system named is Escherichia coli. Put plainly: Antibacterial activity against Escherichia coli after 48 hrs by agar well diffusion method.

The structures appear in SMILES notation. Converted amounts (≈) assume the structure as drawn.

Take `[Br-].[Br-].c1cc2cc(c1)C[n+]1cn(c3ccccc31)Cc1cc3ccccc3nc1Oc1ccccc1Oc1nc3ccccc3cc1Cn1c[n+](c3ccccc31)C2`: the MIC (as a rule, the least concentration at which growth counts as inhibited) in the experiment with Staphylococcus aureus came to 45 µg/mL; against Klebsiella pneumoniae, 60 µg/mL; against Shigella sp., 55 µg/mL; with Pseudomonas aeruginosa it was 40 µg/mL; against Vibrio cholerae it was 25 µg/mL; in the experiment with Escherichia coli, 30 µg/mL.
As to `[Br-].[Br-].c1cc2nc(c1)C[n+]1ccn(c1)Cc1cc3ccccc3nc1Oc1ccc3ccccc3c1-c1c(ccc3ccccc13)Oc1nc3ccccc3cc1Cn1cc[n+](c1)C2`, the MIC against Staphylococcus aureus was 15 µg/mL; against Klebsiella pneumoniae, 15 µg/mL; with Shigella sp., 10 µg/mL; in the experiment on Pseudomonas aeruginosa it was 20 µg/mL; in the experiment on Vibrio cholerae it was 10 µg/mL; against Escherichia coli, 10 µg/mL.
As to `[Br-].[Br-].c1cc2nc(c1)C[n+]1ccn(c1)Cc1cc3ccccc3nc1Oc1ccccc1Oc1nc3ccccc3cc1Cn1cc[n+](c1)C2`, the minimum inhibitory concentration (MIC) in the experiment with Staphylococcus aureus was determined as 30 µg/mL; in the experiment on Klebsiella pneumoniae, 25 µg/mL; against Shigella sp., 25 µg/mL; with Pseudomonas aeruginosa, 25 µg/mL; in the experiment on Vibrio cholerae, 15 µg/mL; in the experiment on Escherichia coli it was 20 µg/mL.
For the molecule `[Br-].[Br-].c1cc2cc(c1)C[n+]1ccn(c1)Cc1cc3ccccc3nc1Oc1ccc3ccccc3c1-c1c(ccc3ccccc13)Oc1nc3ccccc3cc1Cn1cc[n+](c1)C2`, the minimum inhibitory concentration (MIC) is 15 µg/mL in the experiment with Staphylococcus aureus; 10 µg/mL in the experiment with Klebsiella pneumoniae; 15 µg/mL against Shigella sp.; 25 µg/mL in the experiment with Pseudomonas aeruginosa; 10 µg/mL in the experiment on Vibrio cholerae; 20 µg/mL in the experiment on Escherichia coli.
As for `[Br-].[Br-].c1cc2cc(c1)C[n+]1cn(c3ccccc31)Cc1cc3ccccc3nc1Oc1ccc3ccccc3c1-c1c(ccc3ccccc13)Oc1nc3ccccc3cc1Cn1c[n+](c3ccccc31)C2`, the MIC was determined as 15 µg/mL in the experiment on Staphylococcus aureus; 15 µg/mL in the experiment with Klebsiella pneumoniae; 10 µg/mL against Shigella sp.; 25 µg/mL in the experiment on Pseudomonas aeruginosa; 10 µg/mL in the experiment with Vibrio cholerae; 15 µg/mL against Escherichia coli.
On to `[Br-].[Br-].c1cc2nc(c1)C[n+]1cn(c3ccccc31)Cc1cc3ccccc3nc1Oc1ccccc1Oc1nc3ccccc3cc1Cn1c[n+](c3ccccc31)C2`, for which the MIC in the experiment with Staphylococcus aureus worked out at 35 µg/mL; in the experiment on Klebsiella pneumoniae, 45 µg/mL; with Shigella sp., 40 µg/mL; against Pseudomonas aeruginosa it was 25 µg/mL; against Vibrio cholerae it was 30 µg/mL; against Escherichia coli, 35 µg/mL.
On to `[Br-].[Br-].c1cc2cc(c1)C[n+]1ccn(c1)Cc1cc3ccccc3nc1Oc1ccccc1Oc1nc3ccccc3cc1Cn1cc[n+](c1)C2`, for which the minimum inhibitory concentration (MIC) against Staphylococcus aureus was found to be 45 µg/mL; in the experiment on Klebsiella pneumoniae, 40 µg/mL; with Shigella sp., 45 µg/mL; in the experiment on Pseudomonas aeruginosa, 30 µg/mL; in the experiment on Vibrio cholerae, 35 µg/mL; in the experiment with Escherichia coli it was 30 µg/mL.
For the molecule `[Br-].[Br-].c1cc2nc(c1)C[n+]1cn(c3ccccc31)Cc1cc3ccccc3nc1Oc1ccc3ccccc3c1-c1c(ccc3ccccc13)Oc1nc3ccccc3cc1Cn1c[n+](c3ccccc31)C2`, the MIC in the experiment with Staphylococcus aureus amounted to 45 µg/mL; in the experiment with Klebsiella pneumoniae it was 30 µg/mL; against Shigella sp., 45 µg/mL; against Pseudomonas aeruginosa it was 20 µg/mL; with Vibrio cholerae, 45 µg/mL; in the experiment on Escherichia coli, 30 µg/mL.
Regarding `CN[C@@H]1[C@H](O[C@H]2[C@H](O[C@H]3[C@H](O)[C@@H](O)[C@H](N=C(N)N)[C@@H](O)[C@@H]3N=C(N)N)O[C@@H](C)[C@]2(O)C=O)O[C@@H](CO)[C@H](O)[C@H]1O` [STREPTOMYCIN], the minimum inhibitory concentration (MIC) in the experiment with Staphylococcus aureus turned out to be 25 µg/mL (≈ 43 µM); with Klebsiella pneumoniae, 25 µg/mL (≈ 43 µM); in the experiment on Shigella sp., 25 µg/mL (≈ 43 µM); with Pseudomonas aeruginosa it was 45 µg/mL (≈ 77.4 µM); against Vibrio cholerae it was 25 µg/mL (≈ 43 µM); against Escherichia coli, 20 µg/mL (≈ 34.4 µM).
